According to patent US9988420B2, “Cytotoxic peptides and conjugates thereof” (priority 2013, dated 2018):
Starred links: 1 amine or outer side, 2 acyl side, 3 side chain; linkers in the order of their positions; H or OH if unused. Non-standard residues stand in square brackets, D forms with d. Residues, ends and D or L forms follow the SMILES beside them. *: point of attachment. Dolaproine = CO[C@@H]([C@@H]1CCCN1)[C@@H](C)C(=O)O; X1 = O=C([C@@H]1[C@H]2CC[C@H](C2)N1[*:1])[*:2]; Dil = CC[C@H](C)[C@H](NC)[C@@H](CC(=O)O)OC; X2 = CN1[C@@H]2CC[C@@H](C2)[C@H]1C(=O)*; Phe(ol) = N[C@H](CO)Cc1ccccc1

Columns and labels:
Test in all cases: In vitro cell killing assay of payloads (cell proliferation, Cell-Titer-Glo)
Type in all cases: cell-based
[1] = system: JimT1 cells; settings: Homo sapiens, JIMT-1, 120 h; JimT1 cells; Cell-Titer-Glo after five days; Table 2b; read-out: In vitro cell killing (IC50 (nM)) JimT1
[2] = system: H526 cells; settings: Homo sapiens, 120 h; NCI-H526 cells; Cell-Titer-Glo after five days; Table 2b; read-out: In vitro cell killing (IC50 (nM)) NCI-H526
[3] = system: NCI-N87 cells; settings: Homo sapiens, 120 h, Cell-Titer-Glo after five days
Description: (§1) For evaluation of the cell killing potency of the cytotoxic peptides of Formula (I) in vitro, cell proliferation assays were performed in parallel with 8 cell lines: MDA-MB231 clone 16, clone 40, JimT1, HCC1954, H526, KU812, CMK11-5 cells and Jurkat cells. In addition, in vitro, cell proliferation assays were performed using 3 other cell lines: A375, SKBR3 and NCI-N87. All the cell lines are described in more detail in Example 106 and were also used to assess the in vitro potency of immunoconjugates of the invention. The cell proliferation assays were conducted with Cell-Titer-Glo™ (Promega) five days after cells were incubated with various concentrations of ADCs (Riss et al., (2004) Assay Drug Dev Technol. 2:51-62).

[4] = system: SKBR3 cells; settings: Homo sapiens, SK-BR-3, 120 h, Cell-Titer-Glo after five days
Description: as §1

[5] = system: A375 cells; settings: Homo sapiens, A-375, 120 h, Cell-Titer-Glo after five days
Description: as §1

[6] = system: HCC1954 cells; settings: Homo sapiens, 120 h; HCC1954 cells; Cell-Titer-Glo after five days; Table 2b; read-out: In vitro cell killing (IC50 (nM)) HCC1954

| SMILES | IC50 [1] [nM] | IC50 [2] [nM] | IC50 [3] [nM] | IC50 [4] [nM] | IC50 [5] [nM] | IC50 [6] [nM] |
| --- | --- | --- | --- | --- | --- | --- |
| CC[C@H](C)[C@@H]([C@@H](CC(=O)N1CCC[C@H]1[C@H](OC)[C@@H](C)C(=O)N[C@H](CO)Cc1ccccc1)OC)N(C)C(=O)[C@@H](NC(=O)[C@H]1N[C@@H]2CC[C@H]1C2)C(C)C [Compound 50, (1R,3S,4S)-N-((S)-1-(((3R,4S,5S)-1-((S)-2-((1R,2R)-3-(((S)-1-Hydroxy-3-phenylpropan-2-yl)amino)-1-methoxy-2-methyl-3-oxopropyl)pyrrolidin-1-yl)-3-methoxy-5-methyl-1-oxoheptan-4-yl)(methyl)amino)-3-methyl-1-oxobutan-2-yl)-2-azabicyclo[2.2.1]heptane-3-carboxamide] (H-[X1]V[Dil][Dolaproine][Phe(ol)]) | 57.6 | 52.4 | 10.2 | 5.66 | 5.16 |  |
| CC[C@H](C)[C@@H]([C@@H](CC(=O)N1CCC[C@H]1[C@H](OC)[C@@H](C)C(=O)N[C@H](CO)Cc1cccc(N)c1)OC)N(C)C(=O)[C@@H](NC(=O)[C@@H]1[C@H]2CC[C@H](C2)N1C)C(C)C [Compound 52, (1R,3S,4S)-N-((S)-1-(((3R,4S,5S)-1-((S)-2-((1R,2R)-3-(((S)-1-(3-Aminophenyl)-3-hydroxypropan-2-yl)amino)-1-methoxy-2-methyl-3-oxopropyl)pyrrolidin-1-yl)-3-methoxy-5-methyl-1-oxoheptan-4-yl)(methyl)amino)-3-methyl-1-oxobutan-2-yl)-2-methyl-2-azabicyclo[2.2.1]heptane-3-carboxamide] |  |  | 0.068 | 0.046 | 0.923 | 0.019 |
| CC[C@H](C)[C@@H]([C@@H](CC(=O)N1CCC[C@H]1[C@H](OC)[C@@H](C)C(=O)N[C@@H](Cc1ccccc1)C(=O)OC)OC)N(C)C(=O)[C@@H](NC(=O)[C@@H]1[C@H]2CC[C@H](C2)N1C)C(C)C [Compound 53, (S)-Methyl 2-((2R,3R)-3-((S)-1-((3R,4S,5S)-4-((S)-N,3-dimethyl-2-((1R,3S,4S)-2-methyl-2-azabicyclo[2.2.1]heptane-3-carboxamido)butanamido)-3-methoxy-5-methylheptanoyl)pyrrolidin-2-yl)-3-methoxy-2-methylpropanamido)-3-phenylpropanoate] (X2-V[Dil][Dolaproine]F-OMe) | 0.011 | 0.121 |  | 0.008 | 0.0121 | 0.009 |
| CC[C@H](C)[C@@H]([C@@H](CC(=O)N1CCC[C@H]1[C@H](OC)[C@@H](C)C(=O)N[C@@H](Cc1ccccc1)c1nc(-c2ccccc2)c[nH]1)OC)N(C)C(=O)[C@@H](NC(=O)[C@H]1N[C@@H]2CC[C@H]1C2)C(C)C [Compound 57, (1R,3S,4S)-N-((S)-1-(((3R,4S,5S)-3-Methoxy-1-((S)-2-((1R,2R)-1-methoxy-2-methyl-3-oxo-3-(((S)-2-phenyl-1-(5-phenyl-1H-imidazol-2-yl)ethyl)amino)propyl)pyrrolidin-1-yl)-5-methyl-1-oxoheptan-4-yl)(methyl)amino)-3-methyl-1-oxobutan-2-yl)-2-azabicyclo[2.2.1]heptane-3-carboxamide] | 0.307 | 1.11 | 0.019 | 0.034 | 0.049 |  |
| CC[C@H](C)[C@@H]([C@@H](CC(=O)N1CCC[C@H]1[C@H](OC)[C@@H](C)C(=O)N[C@H](COC)Cc1ccccc1)OC)N(C)C(=O)[C@@H](NC(=O)[C@H]1N[C@@H]2CC[C@H]1C2)C(C)C [Compound 58, (1R,3S,4S)-N-((S)-1-(((3R,4S,5S)-3-Methoxy-1-((S)-2-((1R,2R)-1-methoxy-3-(((S)-1-methoxy-3-phenylpropan-2-yl)amino)-2-methyl-3-oxopropyl)pyrrolidin-1-yl)-5-methyl-1-oxoheptan-4-yl)(methyl)amino)-3-methyl-1-oxobutan-2-yl)-2-azabicyclo[2.2.1]heptane-3-carboxamide] | 2.15 | 4.08 | 0.31 | 0.307 | 0.304 |  |
| CC[C@H](C)[C@@H]([C@@H](CC(=O)N1CCC[C@H]1[C@H](OC)[C@@H](C)C(=O)N[C@@H](Cc1ccccc1)c1cc[nH]n1)OC)N(C)C(=O)[C@@H](NC(=O)[C@H]1N[C@@H]2CC[C@H]1C2)C(C)C [Compound 59, (1R,3S,4S)-N-((S)-1-(((3R,4S,5S)-3-Methoxy-1-((S)-2-((1R,2R)-1-methoxy-2-methyl-3-oxo-3-(((S)-2-phenyl-1-(1H-pyrazol-3-yl)ethyl)amino)propyl)pyrrolidin-1-yl)-5-methyl-1-oxoheptan-4-yl)(methyl)amino)-3-methyl-1-oxobutan-2-yl)-2-azabicyclo[2.2.1]heptane-3-carboxamide] | 37.5 | 19.5 | 4.78 | 3.12 | 3.55 |  |
| CC[C@H](C)[C@@H]([C@@H](CC(=O)N1CCC[C@H]1[C@H](OC)[C@@H](C)C(=O)N[C@@H](Cc1ccccc1)c1ncccn1)OC)N(C)C(=O)[C@@H](NC(=O)[C@H]1N[C@@H]2CC[C@H]1C2)C(C)C [Compound 60, (1R,3S,4S)-N-((S)-1-(((3R,4S,5S)-3-Methoxy-1-((S)-2-((1R,2R)-1-methoxy-2-methyl-3-oxo-3-(((S)-2-phenyl-1-(pyrimidin-2-yl)ethyl)amino)propyl)pyrrolidin-1-yl)-5-methyl-1-oxoheptan-4-yl)(methyl)amino)-3-methyl-1-oxobutan-2-yl)-2-azabicyclo[2.2.1]heptane-3-carboxamide] | 4.82 | 8.35 | 0.801 | 0.591 | 0.45 |  |
| CC[C@H](C)[C@@H]([C@@H](CC(=O)N1CCC[C@H]1[C@H](OC)[C@@H](C)C(=O)N[C@H](Cc1ccccc1)c1ncccn1)OC)N(C)C(=O)[C@@H](NC(=O)[C@H]1N[C@@H]2CC[C@H]1C2)C(C)C [Compound 61, (1R,3S,4S)-N-((S)-1-(((3R,4S,5S)-3-methoxy-1-((S)-2-((1R,2R)-1-methoxy-2-methyl-3-oxo-3-(((R)-2-phenyl-1-(pyrimidin-2-yl)ethyl)amino)propyl)pyrrolidin-1-yl)-5-methyl-1-oxoheptan-4-yl)(methyl)amino)-3-methyl-1-oxobutan-2-yl)-2-azabicyclo[2.2.1]heptane-3-carboxamide] | 66 | 60.6 | 13.5 | 6.1 | 5.43 |  |
| CC[C@H](C)[C@@H]([C@@H](CC(=O)N1CCC[C@H]1[C@H](OC)[C@@H](C)C(=O)N[C@@H](Cc1ccccc1)c1nc(-c2ccccc2)c[nH]1)OC)N(C)C(=O)[C@@H](NC(=O)[C@@H]1[C@H]2CC[C@H](C2)N1C)C(C)C [Compound 66, (1R,3S,4S)-N-((S)-1-(((3R,4S,5S)-3-Methoxy-1-((S)-2-((1R,2R)-1-methoxy-2-methyl-3-oxo-3-(((S)-2-phenyl-1-(4-phenyl-1H-imidazol-2-yl)ethyl)amino)propyl)pyrrolidin-1-yl)-5-methyl-1-oxoheptan-4-yl)(methyl)amino)-3-methyl-1-oxobutan-2-yl)-2-methyl-2-azabicyclo[2.2.1]heptane-3-carboxamide] | 0.052 | 0.126 |  | 0.031 | 0.05 | 0.023 |
| CC[C@H](C)[C@@H]([C@@H](CC(=O)N1CCC[C@H]1[C@H](OC)[C@@H](C)C(=O)N[C@H](COC)Cc1cccc(N)c1)OC)N(C)C(=O)[C@@H](NC(=O)[C@@H]1[C@H]2CC[C@H](C2)N1C)C(C)C [Compound 72, (1R,3S,4S)-N-((S)-1-(((3R,4S,5S)-1-((S)-2-((1R,2R)-3-(((S)-1-(3-Aminophenyl)-3-methoxypropan-2-yl)amino)-1-methoxy-2-methyl-3-oxopropyl)pyrrolidin-1-yl)-3-methoxy-5-methyl-1-oxoheptan-4-yl)(methyl)amino)-3-methyl-1-oxobutan-2-yl)-2-methyl-2-azabicyclo[2.2.1]heptane-3-carboxamide] | 0.224 | 0.287 |  | 0.085 | 0.189 | 0.079 |
| CC[C@H](C)[C@@H]([C@@H](CC(=O)N1CCC[C@H]1[C@H](OC)[C@@H](C)C(=O)N[C@H](C)[C@@H](O)c1ccccc1)OC)N(C)C(=O)[C@@H](NC(=O)[C@@H]1[C@H]2CC[C@H](C2)N1C)C(C)C [Compound 74, (1R,3S,4S)-N-((S)-1-(((3R,4S,5S)-1-((S)-2-((1R,2R)-3-(((1S,2R)-1-Hydroxy-1-phenylpropan-2-yl)amino)-1-methoxy-2-methyl-3-oxopropyl)pyrrolidin-1-yl)-3-methoxy-5-methyl-1-oxoheptan-4-yl)(methyl)amino)-3-methyl-1-oxobutan-2-yl)-2-methyl-2-azabicyclo[2.2.1]heptane-3-carboxamide] | 0.587 | 0.962 |  | 0.351 | 0.571 | 0.27 |
